Results on nine compounds are retold here after ChEMBL document CHEMBL5137025, “Tuberculosis Drug Discovery: Challenges and New Horizons” (J Med Chem, 2022).

Series [1] is described as follows: Half life in mouse. The settings on record: in vivo. The series is classed as ADME, organism-based.
The subject of series [2] is HepG2. Briefly: cells. The note with it: Homo sapiens, HepG2, 40 h.
Description: Cytotoxicity against human HepG2 cells treated for 40 hrs by Cell Titer Glo luminescence assay
Series [3] concerns Mycobacterium tuberculosis. The series is classed as functional, H37Rv. The note with it: dose 400 mg/kg; route sc; time 3 weeks.
In series [4] the test system is Mycobacterium tuberculosis. It is filed as functional. The note with it: H37Rv, 336 h, time 14 day.
Series [5] has as its system Mycobacterium tuberculosis. The series is described as follows: Antibacterial activity against Mycobacterium tuberculosis in acute Mtb infection 129sv dehydropeptidase-1 KO mouse model assessed as reduction in log10 CFU administered twice daily for 6 days in presence of clavulanate. It is filed as functional. The note with it: time 6 day.
Series [6] relates to Mycobacterium tuberculosis. Briefly: Antibacterial activity against Mycobacterium tuberculosis Erdman in acute Mtb infection BALB/c mouse model assessed as reduction in log10 CFU at 35 mg/kg, ip for 8 days. The series is classed as functional. The settings on record: time 8 day.
The subject of series [7] is Mycobacterium tuberculosis. The series is described as follows: Antibacterial activity against Mycobacterium tuberculosis in acute Mtb infection mouse model assessed as reduction in log10 CFU at 25 mg/kg treated for 3 weeks. It is filed as functional.
The nature of series [8]: Inhibition of bacterial DdlA. On the set-up: species or system Bacteria.
Series [9] relates to HepG2. Briefly: Cytotoxicity against human HepG2 cells. It is filed as functional.
For series [10], the system named is Mycobacterium tuberculosis. Briefly: microbe, parasite or virus in culture. The note with it: H37Rv.
Description: Antibacterial activity against Mycobacterium tuberculosis H37Rv assessed as inhibition of bacterial growth
Series [11] is described as follows: Inhibition of Mycobacterium tuberculosis ArgJ assessed as inhibition constant by measuring change in blue shift by ANS dye based displacement assay.
In series [12] the test system is Mycobacterium tuberculosis. The series is classed as functional, H37Rv. The settings on record: dose 40 mg/kg; route po; time 24 day.
A short description of series [13]: Protein binding in human plasma incubated for 5 hrs by LC-MS/MS analysis. The series is classed as ADME, cell-free. The note with it: read-out: PPB (converted).
For series [14], the target named is Voltage-gated inwardly rectifying potassium channel KCNH2 (Homo sapiens, UniProt Q12809).
The test system of series [15] is Mycobacterium tuberculosis. It is filed as functional. The note with it: H37Rv, 168 h, time 7 day.
In series [16] the test system is Mycobacterium tuberculosis. It is filed as functional, H37Rv. The settings on record: dose 100 mg/kg; route po; time 4 weeks.
Series [17] is described as follows: Stability in mouse liver microsome assessed as half life by Reverse-phase HPLC analysis. The series is classed as ADME. The settings on record: liver microsomes.
For series [18], the system named is Mycobacterium tuberculosis. It is filed as functional, H37Rv. The note with it: dose 20-200 mg/kg; route po; time 4 weeks.
In series [19] the test system is Mycobacterium tuberculosis. The series is described as follows: Antibacterial activity against Mycobacterium tuberculosis in acute Mtb infection 129sv dehydropeptidase-1 KO mouse model assessed as reduction in log10 CFU administered orally twice daily for 6 days. The note with it: route po; time 6 day. It is filed as functional.
The subject of series [20] is Mycobacterium tuberculosis. The series is classed as functional, H37Rv. The note with it: dose 200 mg/kg; route po; time 2 weeks.
The test system of series [21] is Mycobacterium tuberculosis. The series is classed as functional, H37Rv. The note with it: dose 200 mg/kg; route po; time 8 weeks.
The next series can be described thus: in vitro. The note with it: human, dermal fibroblasts.
The next series is described as follows: physchem. The settings on record: sodium phosphate buffer, pH 7.4.
Series [22] can be described thus: Half life in Swiss-Webster mouse at 200 mg/kg, po via gavage measured after 4 hrs. It is filed as ADME, organism-based. The note with it: in vivo.
Series [23] concerns HepG2. Briefly: Cytotoxicity against human HepG2 cells by MTT assay. The series is classed as functional.
Series [24] can be described thus: Inhibition of Mycobacterium tuberculosis ASADH expressed in Escherichia coli BL21.
Series [25] is described as follows: Cytotoxicity against African green monkey Vero cells by MTT assay. It is filed as toxicity, cell-based. The note with it: chlorocebus sabaeus.
The test system of series [26] is Mycobacterium tuberculosis. The series is classed as functional, H37Rv. The settings on record: dose 25 mg/kg; route ig; time 3 weeks.

Values after ≈ are worked out from the molar mass of the structure shown.

Sequence of Voltage-gated inwardly rectifying potassium channel KCNH2 (Q12809 whole entry): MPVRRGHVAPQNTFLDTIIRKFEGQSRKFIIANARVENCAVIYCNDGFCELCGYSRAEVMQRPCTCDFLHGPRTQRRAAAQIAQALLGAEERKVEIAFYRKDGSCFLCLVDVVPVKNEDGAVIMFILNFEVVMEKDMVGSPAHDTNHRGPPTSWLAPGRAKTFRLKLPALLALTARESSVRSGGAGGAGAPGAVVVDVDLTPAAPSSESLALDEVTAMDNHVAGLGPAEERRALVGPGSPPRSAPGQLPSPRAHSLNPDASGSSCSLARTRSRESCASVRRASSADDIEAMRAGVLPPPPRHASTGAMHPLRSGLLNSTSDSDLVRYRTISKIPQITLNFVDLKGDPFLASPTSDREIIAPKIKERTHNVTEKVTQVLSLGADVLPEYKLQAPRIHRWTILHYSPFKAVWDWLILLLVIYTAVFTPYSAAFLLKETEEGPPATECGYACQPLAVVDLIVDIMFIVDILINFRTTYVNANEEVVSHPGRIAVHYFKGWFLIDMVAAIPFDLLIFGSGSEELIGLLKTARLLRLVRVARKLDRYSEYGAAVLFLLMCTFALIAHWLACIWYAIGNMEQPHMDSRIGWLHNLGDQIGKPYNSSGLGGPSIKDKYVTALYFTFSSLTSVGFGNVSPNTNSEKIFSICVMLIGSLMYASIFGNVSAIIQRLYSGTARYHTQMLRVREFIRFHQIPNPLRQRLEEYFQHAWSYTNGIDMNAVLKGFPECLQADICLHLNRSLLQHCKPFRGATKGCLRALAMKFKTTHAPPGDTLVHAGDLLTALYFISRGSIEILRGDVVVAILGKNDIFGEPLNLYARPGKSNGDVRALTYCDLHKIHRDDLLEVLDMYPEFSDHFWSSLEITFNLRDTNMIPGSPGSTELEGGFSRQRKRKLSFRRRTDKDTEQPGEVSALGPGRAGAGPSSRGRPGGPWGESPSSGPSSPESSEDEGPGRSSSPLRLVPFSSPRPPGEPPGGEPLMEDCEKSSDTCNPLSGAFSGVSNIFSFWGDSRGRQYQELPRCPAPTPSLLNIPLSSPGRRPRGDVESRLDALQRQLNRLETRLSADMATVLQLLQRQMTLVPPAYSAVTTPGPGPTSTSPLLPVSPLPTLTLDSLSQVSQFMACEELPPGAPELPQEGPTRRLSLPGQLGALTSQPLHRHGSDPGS
Description for in vitro: Cytotoxicity against human dermal fibroblasts assessed as cell growth inhibition treated for 48 hrs by resazurin dye based assay

As for `CCNC(=N)NC(=O)Nc1c(CC)cccc1CC`, the half-life in series [1] is 402 min. For the same compound, the CC50 in the series on HepG2 [2] was > 30 µM.

Regarding `C[C@@H](O)[C@H]1C(=O)N2C(C(=O)O)=C(S[C@@H]3CN[C@H](C(=O)N(C)C)C3)[C@H](C)[C@H]12` [MEROPENEM], the Activity in series [3] is <2 log10CFU; in series [5], 1.7 log10CFU. In series [4], the MIC90 stood at 10 µM (≈ 3.83 µg/mL). The same compound had a half-life in series [1] of 27.6 min.

In turn, `Cc1cc2oc(=O)cc(-c3cccc(N)c3)c2c(C)c1-c1ccc(CN2CCOCC2)cc1` yielded an MIC99 in [4] of 0.24 µM (≈ 0.106 µg/mL). In series [6], the Activity was determined as 2 log10CFU.

Take `OC1(c2ccc(OC(F)F)cc2)C[N+](c2ccccc2)=C2CCCCN21.[Br-]` (stereo not drawn): the Activity in [7] turned out to be 1.2 log10CFU. For the same compound, the 50% inhibitory concentration (IC50) in series [8] was determined as 6.2 µM. The CC50 in the series with HepG2 [9] was 263 µM. In series [10], this compound came in with an MIC of 1.1 µM.

On to `O=C(Nc1cccc2c(=O)cc(-c3nnn[nH]3)oc12)c1ccc(OCCCCc2ccccc2)cc1`, for which the inhibition constant (Ki) in [11] was 139 µM. The compound further displayed an Activity in series [12] of 0.5 log10CFU. The MIC90 in series [10] was determined as 10 µM (≈ 4.82 µg/mL).

`Cc1n[nH]c2ccc(NS(=O)(=O)CCCCF)cc12`: the fraction unbound at 5 h in [13] is 0.23. For the same compound, the half-inhibitory concentration (IC50) in series [14] was > 50 µM. In series [15], this compound returned an MIC of 0.2 µM (≈ 0.0571 µg/mL). The Activity in series [16] was 2 log10CFU; in series [18], >2 log10CFU. Further, the half-life in series [17] was found to be 28 min.

In the case of `CO[C@H]1CCC[C@H]2C1=C(C(=O)OC(C)OC(=O)OC1CCCCC1)N1C(=O)[C@H]([C@@H](C)O)[C@@H]21` (stereo partly drawn) [SANFETRINEM CILEXETIL], the Activity in series [19] is listed as 1.4 log10CFU.

For `CNC(=O)c1c(-c2ccc(O)cc2)oc2ccc(O)c(CN3CCCCC3)c12`, the Activity was found to be 0.9 log10CFU in series [20] and 1.9 log10CFU in series [21]. Moreover, the CC50 at 48 h in “in vitro” was > 100 µM. In the series “physchem”, this compound yielded a kinetic solubility at 24 h of 74 µM (≈ 28.2 µg/mL). Moreover, in series [10], the MIC90 turned out to be 0.13 µM (≈ 0.0495 µg/mL). This compound showed a half-life in series [22] of 60 min.

`O=C(Nc1nnc(C2CCCO2)o1)c1ccc([N+](=O)[O-])o1` (stereo not drawn): the CC50 (in the series on HepG2 [23]; in [25]) was > 218 µM in each case. This compound came in with an IC50 in series [24] of 2 µM. The Activity in series [26] worked out at 1.7 log10CFU. The compound further returned an MIC in series [10] of 1.7 µM (≈ 0.5 µg/mL).
